Where two headings read alike, the source gives them in different places.
Experiments:
GCN2 kinase = GCN2 kinase (Homo sapiens, UniProt Q9P2K8); assay: GCN2 enzyme inhibition assay (Transcreener ADP2 fluorescence polarization); format: biochemical; conditions: 280 μM ATP
Procedure, shortened: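 Inhibition of 4 nM GCN2 was measured with compound up to 8 μM final, ATP 280 μM and (RS)7 peptide 200 μM over a 1 h, 25 °C reaction. ADP FP readout; IC50 and Ki(app) calculated from percent inhibition.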

[1] = biological target: intracellular GCN2 (phosphorylation of the GCN2 substrate eIF2α) (Homo sapiens, UniProt Q9P2K8); assay: GCN2 cellular inhibition assay (AlphaScreen SureFire P-eIF2α Ser51, borrelidin-treated U2OS cells); format: cell-based
Sequence of intracellular GCN2 (phosphorylation of the GCN2 substrate eIF2α) (Q9P2K8 whole entry): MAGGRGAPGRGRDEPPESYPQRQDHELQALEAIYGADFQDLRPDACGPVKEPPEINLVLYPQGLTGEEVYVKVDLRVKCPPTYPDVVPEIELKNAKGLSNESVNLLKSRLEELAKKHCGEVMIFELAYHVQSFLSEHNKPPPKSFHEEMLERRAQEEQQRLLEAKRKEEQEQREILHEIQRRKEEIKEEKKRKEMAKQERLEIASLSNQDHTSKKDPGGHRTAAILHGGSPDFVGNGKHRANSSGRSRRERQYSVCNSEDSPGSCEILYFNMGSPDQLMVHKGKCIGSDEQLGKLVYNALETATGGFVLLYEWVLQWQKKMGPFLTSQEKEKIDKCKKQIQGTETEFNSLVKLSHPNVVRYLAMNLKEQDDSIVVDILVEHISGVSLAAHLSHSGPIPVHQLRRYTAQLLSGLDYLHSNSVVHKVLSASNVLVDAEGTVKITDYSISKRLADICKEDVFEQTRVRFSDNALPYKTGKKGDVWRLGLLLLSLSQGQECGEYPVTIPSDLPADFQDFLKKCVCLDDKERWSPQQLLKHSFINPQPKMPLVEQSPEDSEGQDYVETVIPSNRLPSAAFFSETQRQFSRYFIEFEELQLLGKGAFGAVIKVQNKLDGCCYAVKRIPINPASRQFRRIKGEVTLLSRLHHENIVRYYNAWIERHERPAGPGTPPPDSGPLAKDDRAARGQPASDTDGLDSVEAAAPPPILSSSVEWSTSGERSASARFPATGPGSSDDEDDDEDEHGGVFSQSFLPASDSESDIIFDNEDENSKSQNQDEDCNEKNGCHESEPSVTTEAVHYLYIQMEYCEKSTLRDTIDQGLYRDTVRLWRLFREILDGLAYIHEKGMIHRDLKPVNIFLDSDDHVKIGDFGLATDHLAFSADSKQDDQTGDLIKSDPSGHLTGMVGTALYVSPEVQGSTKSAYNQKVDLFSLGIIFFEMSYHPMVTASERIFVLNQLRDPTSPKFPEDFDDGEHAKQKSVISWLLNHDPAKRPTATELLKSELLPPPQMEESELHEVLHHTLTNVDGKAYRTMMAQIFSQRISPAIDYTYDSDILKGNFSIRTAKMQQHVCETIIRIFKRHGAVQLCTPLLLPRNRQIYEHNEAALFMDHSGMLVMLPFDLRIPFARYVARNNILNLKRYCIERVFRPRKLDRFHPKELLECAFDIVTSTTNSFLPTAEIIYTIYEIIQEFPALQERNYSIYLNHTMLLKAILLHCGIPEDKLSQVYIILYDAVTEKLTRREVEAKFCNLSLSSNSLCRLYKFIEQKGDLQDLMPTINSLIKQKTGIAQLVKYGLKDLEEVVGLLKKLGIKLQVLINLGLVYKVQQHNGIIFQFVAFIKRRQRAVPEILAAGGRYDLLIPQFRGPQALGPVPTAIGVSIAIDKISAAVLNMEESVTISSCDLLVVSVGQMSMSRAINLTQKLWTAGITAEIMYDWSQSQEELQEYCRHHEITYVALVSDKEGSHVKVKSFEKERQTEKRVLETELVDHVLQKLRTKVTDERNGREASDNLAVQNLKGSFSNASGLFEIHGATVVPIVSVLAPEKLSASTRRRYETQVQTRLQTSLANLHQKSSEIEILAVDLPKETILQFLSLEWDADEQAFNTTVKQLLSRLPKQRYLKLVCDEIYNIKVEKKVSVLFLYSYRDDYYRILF
Procedure, shortened: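 Read-out: AlphaScreen SureFire phospho-eIF2α (Ser51) signal in U2OS lysates. Cells get 4-fold compound dilutions (top 40 μM final) plus 10 μM borrelidin, 1 h, 37 °C. Percent inhibition is relative to borrelidin-alone controls.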

[2] = Enzyme activity for compounds of Formula IV, Ki(app), 25° C.
[3] = compounds of Formula IV, biomarker assay, phosphorylated eIF2α Ser51 in borrelidin-treated U2OS cells
[4] = compounds of Formula II, 4 nM GCN2 kinase
[5] = compounds of Formula II, biomarker assay, phosphorylated eIF2α Ser51 in borrelidin-treated U2OS cells

Sequence of GCN2 kinase (Q9P2K8 whole entry): as above

Row | Ki (GCN2 kinase; [2]) | IC50 [1, 3] | Ki (GCN2 kinase; [4]) | IC50 [1, 5] | Structure (SMILES) | also measured
1 | 100 to 1000 nM | > 5000 nM |  |  | N#CCC1CCCN(c2ccnc(-c3cnc4cnc(C(F)F)cn34)n2)C1 (centres unmarked) [IV-82, 2-(1-(2-(6-(Difluoromethyl)imidazo[1,2-a]pyrazin-3-yl)pyrimidin-4-yl)piperidin-3-yl)acetonitrile] | 
2 | 10 to 100 nM | 500 to 5000 nM |  |  | NC(=O)C1CCCN(c2ccnc(-c3cnc4cnc(C(F)F)cn34)n2)C1 (centres unmarked) [IV-42, 1-(2-(6-(Difluoromethyl)imidazo[1,2-a]pyrazin-3-yl)pyrimidin-4-yl)piperidine-3-carboxamide] | 
3 | 100 to 1000 nM | > 5000 nM |  |  | O=C1CCCC2CN(c3ccnc(-c4cnc5cnc(C(F)F)cn45)n3)CCN12 (centres unmarked) [IV-99, 2-(2-(6-(Difluoromethyl)imidazo[1,2-a]pyrazin-3-yl)pyrimidin-4-yl)octahydro-6H-pyrido[1,2-a]pyrazin-6-one] | 
4 | < 10 nM | < 500 nM |  |  | Fc1n[nH]cc1C1CCN(c2ccnc(-c3cnc4cnc(C(F)(F)F)cn34)n2)C1 (centres unmarked) [IV-524, 3-(4-(3-(3-Fluoro-1H-pyrazol-4-yl)pyrrolidin-1-yl)pyrimidin-2-yl)-6-(trifluoromethyl)imidazo[1,2-a]pyrazine] | 
5 | > 1000 nM | > 5000 nM |  |  | FC(F)(F)c1cn2c(-c3nccc(N4CCOC(c5ccncc5)C4)n3)cnc2cn1 (centres unmarked) [IV-724] | 
6 | 100 to 1000 nM | > 5000 nM |  |  | NC(=O)CCC1CCCN(c2ccnc(-c3cnc4cnc(C(F)F)cn34)n2)C1 (centres unmarked) [IV-45, 3-(1-(2-(6-(Difluoromethyl)imidazo[1,2-a]pyrazin-3-yl)pyrimidin-4-yl)piperidin-3-yl)propanamide] | 
7 | 100 to 1000 nM | > 5000 nM |  |  | CS(=O)(=O)C1CCCN(c2ccnc(-c3cnc4cnc(C(F)F)cn34)n2)C1 (centres unmarked) [IV-165, 6-(Difluoromethyl)-3-(4-(3-(methylsulfonyl)piperidin-1-yl)pyrimidin-2-yl)imidazo[1,2-a]pyrazine] | 
8 | 100 to 1000 nM | > 5000 nM |  |  | CS(=O)(=O)NCC1CCCN(c2ccnc(-c3cnc4cnc(C(F)F)cn34)n2)C1 (centres unmarked) [IV-152, N-((1-(2-(6-(Difluoromethyl)imidazo[1,2-a]pyrazin-3-yl)pyrimidin-4-yl)piperidin-3-yl)methyl)methanesulfonamide] | 
9 | 10 to 100 nM | 500 to 5000 nM |  |  | CCN1CCN(c2ccnc(-c3cnc4cnc(Br)cn34)n2)[C@@H](C)[C@H]1c1cn[nH]c1 (single isomer, unassigned) [IV-401, Cis-6-Bromo-3-(4-(4-ethyl-2-methyl-3-(1H-pyrazol-4-yl)piperazin-1-yl)pyrimidin-2-yl)imidazo[1,2-a]pyrazine] | 
10 | 10 to 100 nM | 500 to 5000 nM |  |  | NC(=O)[C@H]1CCCN(c2ccnc(-c3cnc4cnc(C(F)F)cn34)n2)C1 [IV-50, (S)-1-(2-(6-(Difluoromethyl)imidazo[1,2-a]pyrazin-3-yl)pyrimidin-4-yl)piperidine-3-carboxamide] | 
11 | < 10 nM | < 500 nM |  |  | CC1C(c2cn[nH]c2)OCCN1c1ccnc(-c2cnc3cnc(C(F)(F)F)cn23)n1 (single isomer, unassigned) [IV-318, 3-Methyl-2-(1H-pyrazol-4-yl)-4-(2-(6-(trifluoromethyl)imidazo[1,2-a]pyrazin-3-yl)pyrimidin-4-yl)morpholine] | 
12 | 10 to 100 nM | 500 to 5000 nM |  |  | FC(F)(F)c1cn2c(-c3nccc(N4CCC=C(c5cnsc5)C4)n3)cnc2cn1 [IV-535, 4-(1-(2-(6-(Trifluoromethyl)imidazo[1,2-a]pyrazin-3-yl)pyrimidin-4-yl)-1,2,5,6-tetrahydropyridin-3-yl)isothiazole] | 
13 | < 10 nM | 500 to 5000 nM |  |  | c1cc(N2CCOC(c3cn[nH]c3)C2)nc(-c2cnc3cnc(C4CC4)cn23)n1 (centres unmarked) [IV-4, 4-(2-(6-Cyclopropylimidazo[1,2-a]pyrazin-3-yl)pyrimidin-4-yl)-2-(1H-pyrazol-4-yl)morpholine] | 
14 | < 10 nM | 500 to 5000 nM |  |  | CC1CN(c2ccnc(-c3cnc4cnc(C#N)cn34)n2)C(C)C(c2cn[nH]c2)N1 (centres unmarked) [IV-305, 3-(4-(2,5-Dimethyl-3-(1H-pyrazol-4-yl)piperazin-1-yl)pyrimidin-2-yl)imidazo[1,2-a]pyrazine-6-carbonitrile] | 

The remaining lines, values behind:

Row | Structure (SMILES) | Ki (GCN2 kinase; [2]) | IC50 [1, 3] | Ki (GCN2 kinase; [4]) | IC50 [1, 5] | also measured
15 | CCN1CCN(c2cc(-c3cnc4ccc(C(F)F)nn34)ncn2)C(C)C1CNS(C)(=O)=O (centres unmarked) [II-482, N-((4-(6-(6-(difluoromethyl)imidazo[12-b]pyridazin-3-yl)pyrimidin-4-yl)-1-ethyl-3-methylpiperazin-2-yl)methyl)methanesulfonamide] |  |  | < 10 nM | < 500 nM | 
16 | FC(F)c1ccc2ncc(-c3cc(N4CCCCC4C(F)(F)F)ncn3)n2n1 (centres unmarked) [II-380, 6-(Difluoromethyl)-3-(6-(2-(trifluoromethyl)piperidin-1-yl)pyrimidin-4-yl)imidazo[1,2-b]pyridazine] |  |  | > 1000 nM | > 5000 nM | 
17 | FC(F)c1ccc2ncc(-c3ccnc(N4CCOC(c5cn[nH]c5)C4)c3)n2n1 (centres unmarked) [II-107, 4-(4-(6-(Difluoromethyl)imidazo[1,2-b]pyridazin-3-yl)pyridin-2-yl)-2-(1H-pyrazol-4-yl)morpholine] |  |  | 10 to 1000 nM | < 500 nM | 
18 | CC(NS(C)(=O)=O)[C@@H]1CN(c2cc(-c3cnc4ccc(C(F)F)nn34)ncn2)CCO1 (single isomer, unassigned) [II-510] |  |  | 10 to 1000 nM | 500 to 5000 nM | 
19 | CC1CC(CNS(C)(=O)=O)CN(c2cc(-c3cnc4ccc(C(F)F)nn34)ncn2)C1 (single isomer, unassigned) [II-436, N-((1-(6-(6-(Difluoromethyl)imidazo[1,2-b]pyridazin-3-yl)pyrimidin-4-yl)-5-methylpiperidin-3-yl)methyl)methanesulfonamide] |  |  | 10 to 1000 nM | 500 to 5000 nM | 
20 | CNc1cc(-c2cnc3ccc(C(F)F)nn23)cc(N2CCC[C@H](CNS(C)(=O)=O)C2)n1 [II-68, (S)—N-((1-(4-(6-(Difluoromethyl)imidazo[1,2-b]pyridazin-3-yl)-6-(methylamino)pyridin-2-yl)piperidin-3-yl)methyl)methanesulfonamide] |  |  | < 10 nM | 500 to 5000 nM | 
21 | CC1CC(CNS(C)(=O)=O)CN(c2cc(-c3cnc4ccc(C(F)F)nn34)ncn2)C1 (centres unmarked) [II-398, N-((1-(6-(6-(Difluoromethyl)imidazo[1,2-b]pyridazin-3-yl)pyrimidin-4-yl)-5-methylpiperidin-3-yl)methyl)methanesulfonamide] |  |  | 10 to 1000 nM | 500 to 5000 nM | 
22 | OCCC1CN(c2cc(-c3cnc4ccc(C(F)F)nn34)ncn2)CCN1 (centres unmarked) [II-496, 2-(4-(6-(6-(Difluoromethyl)imidazo[1,2-b]pyridazin-3-yl)pyrimidin-4-yl)piperazin-2-yl)ethan-1-ol] |  |  | 10 to 1000 nM | > 5000 nM | 
23 | C[C@@H]1C[C@H](CS(C)(=N)=O)[C@H](C)N(c2cc(-c3cnc4ccc(C(F)F)nn34)ncn2)C1 (stereo partly drawn) [II-607, (((2S,3S,5R)-1-(6-(6-(Difluoromethyl)imidazo[1,2-b]pyridazin-3-yl)pyrimidin-4-yl)-2,5-dimethylpiperidin-3-yl)methyl)(imino)(methyl)-λ^6-sulfanone] |  |  | < 10 nM | < 500 nM | 
24 | OCCC1CN(c2cc(-c3cnc4ccc(C(F)(F)F)nn34)ncn2)CCO1 (centres unmarked) [II-500, 2-(4-(6-(6-(Trifluoromethyl)imidazo[1,2-b]pyridazin-3-yl)pyrimidin-4-yl)morpholin-2-yl)ethan-1-ol] |  |  | 10 to 1000 nM | > 5000 nM | 
25 | O=C1CCCC2CN(c3cc(-c4cnn5cccnc45)ccn3)CCN12 (centres unmarked) [III-16, 2-(4-(pyrazolo[1,5-a]pyrimidin-3-yl)pyridin-2-yl)octahydro-6H-pyrido[1,2-a]pyrazin-6-one] |  |  |  |  | Ki (GCN2 kinase; compounds of Formula III, 4 nM GCN2 kinase): > 1000 nM; IC50 ([1]; compounds of Formula III, U2OS cells, 10 μM borrelidin, 1 h, read-out: GCN2 Biomarker (IC50)): > 5000 nM
26 | CC1C(CNS(C)(=O)=O)CCCN1c1cc(-c2cnc3ccc(C(F)F)nn23)ncn1 (single isomer, unassigned) [II-264, N-((1-(6-(6-(Difluoromethyl)imidazo[1,2-b]pyridazin-3-yl)pyrimidin-4-yl)-2-methylpiperidin-3-yl)methyl)methanesulfonamide] |  |  | 10 to 1000 nM | > 5000 nM | 
27 | O=S1(=O)CCN(c2cc(-c3cnc4ccc(C(F)F)nn34)ncn2)CC1 [II-295, 4-(6-(6-(Difluoromethyl)imidazo[1,2-b]pyridazin-3-yl)pyrimidin-4-yl)thiomorpholine 1,1-dioxide] |  |  | > 1000 nM | > 5000 nM | 
28 | FC(F)(F)c1ccc2ncc(-c3ccnc(N4CCOC(c5cn[nH]c5)C4)c3)n2n1 (centres unmarked) [II-225, 2-(1H-Pyrazol-4-yl)-4-(4-(6-(trifluoromethyl)imidazo[1,2-b]pyridazin-3-yl)pyridin-2-yl)morpholine] |  |  | < 10 nM | < 500 nM | 
29 | CS(=O)(=O)N1CCC2C(C1)OCCN2c1cc(-c2cnc3ccc(C(F)F)nn23)ncn1 (centres unmarked) [II-369, 1-(6-(6-(Difluoromethyl)imidazo[1,2-b]pyridazin-3-yl)pyrimidin-4-yl)-6-(methylsulfonyl)octahydro-1H-pyrido[3,4-b][1,4]oxazine] |  |  | 10 to 1000 nM | > 5000 nM | 
30 | CC1CN(c2cc(-c3cnc4ccc(C(F)F)nn34)ccn2)CC(CNS(C)(=O)=O)C1(F)F (centres unmarked) [II-58, N-((1-(4-(6-(Difluoromethyl)imidazo[1,2-b]pyridazin-3-yl)pyridin-2-yl)-4,4-difluoro-5-methylpiperidin-3-yl)methyl)methanesulfonamide] |  |  | < 10 nM | < 500 nM | 
31 | CN1CCN(c2cc(-c3cnc4ccc(C(F)F)nn34)ncn2)C[C@H]1CNS(C)(=O)=O [II-410] |  |  | 10 to 1000 nM | 500 to 5000 nM | 
